Where a SMILES comes first, the peptide text is derived from it. Where no end group is shown, it is not given here. [ ]: non-standard residue; d: D form. The star is where a group is joined. Dolaproine = CO[C@@H]([C@@H]1CCCN1)[C@@H](C)C(=O)O; Dil = CC[C@H](C)[C@H](NC)[C@@H](CC(=O)O)OC; Palmitoyl = CCCCCCCCCCCCCCCC(=O)*; X1 = C[C@@H](N*)[C@@H](O)c1ccccc1; NMeV = CN[C@H](C(=O)O)C(C)C
Assays:
[1] = system: 4T1 mouse breast cancer cells; test: Cellular uptake of Cy5 labeled PAs; assay type: cell-based
Protocol: To compare the uptake of SA‐E and SA‐K, 1 × 10^5 4T1 cells were grown to near confluency (1–2 days) in 96 well plates with black walls and flat glass bottom. 100% Cy5 conjugated PAs (20 or 10 µM) or 10% Cy5 conjugated PA micelles (10 µM Cy5‐PAs mixed with 90 µM maleimide blocked labeled PAs) were preincubated in 10% FBS containing RPMI for 30 min at 37 °C, wells were aspirated, and 100 µL of media containing PAs were added. The plate was incubated for 30 min for the experiments with 100% Cy5 conjugated PAs. Media were aspirated, wells were washed 3x with 150 µL sterile PBS, and then 100 µL RPMI containing 10% FBS was added to each well. The plate was incubated for 1 h at 37 °C. For 10% and 100% Cy5 micelle uptake comparison, plate was incubated for 2 h at 37 °C with PAs. Then, media containing PAs were aspirated and washed with PBS, as above. Cell nuclei were stained with Hoechst (1:5000 dilution in PBS) for 5 min and then removed. 100 µL of phenol red free RPMI containing 10% FBS was added to each well. […] The microscope incubator was preheated for 30 min to reach 35 °C prior to imaging.
To study the uptake of SA‐E or SA‐K micelles (10% or 100% Cy5 micelles) or No‐SA over time, 4T1 cells were grown to near confluency in a 96 well plate as described above. Cy5 conjugated 100% Cy5 conjugated PAs (20 µM), 10% Cy5 conjugated PAs (10 µM Cy5), or No‐SA (20 µM) or were preincubated in 10% FBS containing RPMI for 30 min at 37 °C. Cell nuclei were stained with Hoechst stain as above. Cell membranes were stained (CellBrite 488, 1:1000 in 10% FBS containing RPMI) for 30 min at 37 °C. Wells were aspirated, and 100 µL of PAs were added to the wells for ≈1 min. Wells were washed with sterile PBS (3x, 150 µL), and Confocal images were taken at different time points (up to 2 h) after PA or No‐SA addition as described above using a 60x objective.

4T1 tumor [2] = test: Tumor accumulation, live IVIS imaging; assay type: in vivo, mouse; settings: 50 nmol IV
Protocol: For tumor accumulation studies in subcutaneous (HCT‐116, A375, TRAMP‐C2, MC38, LLC1, RG2, PDX cell lines, wild type or SR‐B1 ‐/‐ TRAMP‐C2, and wild type or LDL‐R ‐/‐ HeLa), intradermal (A375), or fat pad (4T1 and MCF‐7) tumors, cells were implanted as described above. When the tumors reached a size around ≈0.3–1 cm, mice were injected intravenously with 100 µL of ICG conjugated PAs (in PBS, 0.5 mM) or free ICG (in PBS, 0.5 mM). After probe injections, mice were imaged using the IVIS Spectrum (PerkinElmer) with excitation and emission wavelengths of 745 and 820 nm, respectively, at the specified time points. Living Image (PerkinElmer) software was used for all analyses. For MMTV mice experiments, mice were injected intravenously weekly with SA‐E (100 µL PBS, 0.5 mM) between 71 and 85 days of age and imaged 2 days later in the IVIS. […] SA‐E was injected intravenously (100 µL PBS, 0.5 mM), 2 days later the intestinal tissue was harvested, washed, and analyzed in the IVIS for ICG.

[3] = TEM imaging of PA nanostructures; assay type: physicochemical; settings: ICG conjugated PA, 200 µM in ultrapure water, negative stain
Protocol: For TEM imaging, PAs conjugated with ICG, Cy5 or MMAE were dissolved in ultrapure water at a concentration of 200 µM. Carbonfilm 200 copper mesh TEM grids were glow‐discharged first. Then, PA solutions (15 µL) were placed on the grids, incubated for 10 min before blotting, and air‐dried. 15 µL of ultrapure water was applied to wash the grid for 3 min. After incubation, the water was removed by blotting from the edge of the grid. For negative staining of the samples, a 0.4% uranyl acetate solution was prepared in ultrapure water and filtered using a 0.1 µm syringe filter. 15 µL of filtered uranyl acetate solution was applied to the grid and incubated for 5 min. Finally, TEM grids were blotted to remove excess stain and dried at room temperature. TEM imaging was performed using a Tecnai or Talos microscope (FEI).

[4] = Fluorescence polarization of PA nanostructures; assay type: physicochemical; settings: 10 mol% ICG conjugated PA (20 µM) with unconjugated PA, 200 µM total, PBS; mean ± SEM, 3 wells
Protocol: ICG (10 mol%) containing PA micelles were prepared by mixing ICG‐conjugated PAs with unconjugated or MMAE‐conjugated PAs to achieve a final concentration of 20 µM ICG‐conjugated PAs and 200 µM of total PAs. Aliquots of 100 µL were added to a 96‐well plate (3 wells for each PA). Fluorescence polarization measurements were performed using a microplate reader (TECAN Spark 20 M). The corrected parallel intensity (I par) and perpendicular intensity (Iper) were used to calculate the fluorescence anisotropy (r) using the following equation: r = […].

[5] = PA fluorescence in liver homogenates; assay type: in vitro ADME; settings: ICG conjugated, 0.1 to 10 µM spiked into mouse liver homogenate, IVIS
Protocol: Liver samples (6.2 g total weight) collected from healthy BALB/cJ mice were placed in a gentleMACS M Tube containing 2 mL of PBS. The M Tube was fitted with a 600 µm mesh strainer, and homogenization was performed using a gentleMACS Dissociator by running a one‐minute program at 1260 rotations per round (rpr) for five cycles. ICG conjugated SA‐E and SA‐K were then spiked into the liver homogenates in a 96‐well plate at final concentrations of 0, 0.1, 0.5, 2.0, 5.0, and 10 µM. Fluorescence signals from the homogenates were measured using an IVIS (PerkinElmer).

[6] = system: LPs (HDL, LDL, VLDL) and albumin in pooled human plasma; design: AUC of all FPLC peaks, lower than SA‐E: unit not given beside the values
[7] = Blood circulation in mice; assay type: in vivo, mouse
Protocol: For blood circulation experiments, Balb/c mice were injected with 100 µL of ICG conjugated PAs or No‐SA, or free ICG (0.5 mM). Then, blood was drawn via the saphenous vein or retro‐orbitally at different time points (immediately after injection to 1 day). […] Blood from wild type mice was collected to prepare calibration curves for each probe. To each 18 µL aliquot of blood, 2 µL of probe stock solution (0.5 mM) was added and incubated at 37 °C for 1 h. The spiked samples were then serially diluted in blood between 50 and 0.1 µM. For fluorescence measurement, 2 µL of each diluted sample was further diluted into 98 µL of PBS, and ICG fluorescence was measured using a TECAN plate reader.

4T1 tumor [8] = test: Antitumor effect, 4T1 orthotopic mouse model
Protocol: All experiments were approved by the Oregon Health and Science University (OHSU) Institutional Animal Care and Use Committee (IACUC) (TR01_IP00000674) and conformed to the guidelines set by the United States Animal Welfare Act and the National Institutes of Health. Mice were aged between 3 and 8 months and 20–30 g in weight and were housed in specific pathogen free cages. Human, mouse, or rat cells were injected into nude (The Jackson Laboratory, 002019), NSG mice (The Jackson Laboratory, 005557), Balb/c mice (The Jackson Laboratory, 000651), or C57Bl/6J mice (The Jackson Laboratory, 000664), as specified below. Cells were injected in 100 µL sterile DMEM at a concentration of 0.5–1×10^7 cells mL^−1, unless otherwise specified. For tumor accumulation and biodistribution studies, A375 cells were injected intradermally into the left ears of NSG mice (The Jackson Laboratory, 005557). MCF7 cells were injected into the mammary fat pad of NSG mice. HCT‐116, RG2, and HeLa (wild type or LDL‐R knockout) cells were subcutaneously injected into the left or both flanks of NSG mice. 4T1 cells were injected into the mammary fat pad of Balb/c mice. LLC1, MC38, and TRAMP‐C2 (wild type or SR‐B1 knockout) were injected into C57Bl/6J mice. Patient‐derived xenografts were generated by injecting the patient‐derived cancer cells subcutaneously into the left flank of NSG mice. ApoA1 and LDL‐R knockout mice were purchased from the Jackson Laboratory (002055 and 002207, respectively). MC38 cells were subcutaneously injected into both flanks of these mice. Apc^min and MMTV‐PyMT mice were purchased from the Jackson Laboratory (002020 and 002374). For antitumor activity studies, 4T1 cells were injected into the mammary fat pad of Balb/c mice. HCT‐116 and RG2 cells were subcutaneously injected into the left flanks of nude mice. For antitumor activity studies, HCT‐116 cells were injected in a 1:1 mixture of DMEM and Matrigel (Life Science 354263).
Mice were injected with 4T1, RG2, or HCT‐116 cells as described above. Mice were then treated intravenously with the free MMAE (0.1 or 0.3 mg kg^−1), SA‐E‐MMAE (0.3, 0.6, 0.8, or 1 mg kg^−1) or PBS (10 mM, pH 7.4). 5 doses were given every 2–3 days over 11 days. […] Tumor size and mouse weight were monitored 2–3 times per week until a humane endpoint (tumor size ≈2 cm or >20% body weight loss) or the study endpoint (18, 25, or 120 days for 4T1, RG2, and HCT‐116 studies, respectively). Tumor size was measured in two directions with a caliper rounded to the nearest tenth of a mm. Volume was calculated as a basic sphere of 4/3πr^3.

Question: With GGGHAANGEECE [No‐SA] as the compound, how does the “membrane binding and internalization” value ([1]; Cy5‐conjugated, 20 µM, ≈1 min exposure, imaging up to 2 h) read?
Answer: no significant membrane binding or internalization

Question: And the “TBR compared to SA‐E” value (4T1 tumor [2]; 4T1 tumor‐bearing mice)?
Answer: significantly lower TBR

Question: What about the “clearance from the tumor” value (4T1 tumor [2]; ICG conjugated, 4T1) of the same compound?
Answer: mostly cleared in 2 days

Question: Which “diameter of rod‐shaped micelles (TEM)” value [3] does the source give for `CCCCCCCCCCCCCCCC(=O)NCC(=O)NCC(=O)NCC(=O)N[C@@H](Cc1c[nH]cn1)C(=O)N[C@@H](C)C(=O)N[C@@H](C)C(=O)N[C@@H](CC(N)=O)C(=O)NCC(=O)N[C@@H](CCCCN)C(=O)N[C@@H](CCCCN)C(=O)N[C@@H](CS)C(=O)N[C@@H](CCCCN)C(=O)O` [SA‐K] (Palmitoyl-GGGHAANGKKCK-OH) here?
Answer: ≈ 10 nm

Question: And the “length of rod‐shaped micelles (TEM)” value [3]?
Answer: several hundred

Question: What about the “fluorescence anisotropy of ICG in micelles” value [4] of the same compound?
Answer: 0.299 ± 0.008

Question: And the “uptake relative to SA‐E” value ([1]; Cy5 conjugated PAs, 10% FBS RPMI, 30 min incubation then 1 h, confocal)?
Answer: approximately three‐fold

Question: What about the “fluorescence in liver homogenates, SA‐E versus SA‐K (disassembly)” value [5] of the same compound?
Answer: almost identical fluorescence intensity

Question: What about the “maximum TBR, lower than that of SA‐E” value (4T1 tumor [2]; 4T1 tumor‐bearing mice) of the same compound?
Answer: approximately two‐fold

Question: What about the “maximum tumor signal, lower than maximum of SA‐E” value (4T1 tumor [2]; 4T1 tumor‐bearing mice) of the same compound?
Answer: ≈ 6 fold

Question: And the “total tumor accumulation (AUC of tumor signal), lower than SA‐E” value (4T1 tumor [2]; 4T1 tumor‐bearing mice)?
Answer: ≈ 2.7 fold

Question: What about the “time of maximum tumor fluorescence” value (4T1 tumor [2]; 4T1 tumor‐bearing mice, ICG conjugated) of the same compound?
Answer: 4 days

Question: What about the “AUC of all FPLC peaks, lower than SA‐E” value [6] of the same compound?
Answer: ≈ 4.5

Question: For `CC1(C)C(/C=C/C=C/C=C/C=C2\N(CCCCS(=O)(=O)O)c3ccc4ccccc4c3C2(C)C)=[N+](CCCCS(=O)(=O)[O-])c2ccc3ccccc3c21` [free ICG, indocyanine green], which “injected dose still in circulation” value ([7]; wild type (Balb/c) mice, ICG conjugated or free ICG 50 nmol IV, 6 h post injection, blood fluorescence with calibration curve) is on record?
Answer: not detectable

Question: And the “blood concentration, share of injected dose” value ([7]; wild type mice, 50 nmol IV, in 30 min)?
Answer: below 1%

Question: What about the TBR (4T1 tumor [2]; all time points) of the same compound?
Answer: around 1

Question: What does the source list for `CC[C@H](C)[C@@H]([C@@H](CC(=O)N1CCC[C@H]1[C@H](OC)[C@@H](C)C(=O)N[C@H](C)[C@@H](O)c1ccccc1)OC)N(C)C(=O)[C@@H](NC(=O)[C@@H](NC)C(C)C)C(C)C` [free MMAE, Monomethyl auristatin E] (H-[NMeV]V[Dil][Dolaproine]-X1)?
Answer: tolerability (4T1 tumor [8]; 0.1 mg kg^−1 IV, 5 doses, n = 3): tolerated; tolerability (4T1 tumor [8]; 0.3 mg kg^−1 IV, stopped after the third injection, n = 5): high toxicity with rapid weight loss; effect on tumor growth (4T1 tumor [8]; 0.1 or 0.3 mg kg^−1 IV): slight reduction in tumor growth
